In one assay the target is T1, EphB4 (Homo sapiens, UniProt P54760).
T1 construct: residues E605-E890 of human EphB4 containing a six histidine NH2-terminal tag; His6 (N); made in house; host or cells: baculovirus expression system
T1 sequence (P54760 605-890): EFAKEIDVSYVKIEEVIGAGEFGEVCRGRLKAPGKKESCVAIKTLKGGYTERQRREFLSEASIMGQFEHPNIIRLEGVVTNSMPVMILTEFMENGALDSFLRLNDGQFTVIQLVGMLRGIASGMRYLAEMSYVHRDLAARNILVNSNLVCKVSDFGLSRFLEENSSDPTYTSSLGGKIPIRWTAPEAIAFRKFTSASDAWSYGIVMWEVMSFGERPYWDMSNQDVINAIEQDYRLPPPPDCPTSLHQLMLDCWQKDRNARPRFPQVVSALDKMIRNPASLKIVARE
Put plainly: Radiometric 33P-phosphoryl transfer kinase assay. Type of assay: biochemical. Conditions: ATP at Km. As to the method: (§1) Dose-response experiments were done using 10 different inhibitor concentrations in 384-well microtiter plates. The ATP concentration used for each assay was equivalent to the Km for each kinase. IC50 values were calculated by nonlinear regression analysis using the four-variable equation: Y=min+(max−min)/[1+([I]/IC50)N], where Y is the observed signal, [I] is the inhibitor concentration, min is the background signal in the absence of enzyme (0% enzyme activity), max is the signal in the absence of inhibitor (100% enzyme activity), IC50 is the inhibitor concentration required at 50% enzyme inhibition, and N represents the empirical Hill slope as a measure of cooperativity.
(§2) A radiometric ^33P-Phosphoryl transfer kinase assay was used to measure EphB4, insulin-like growth factor-I receptor (IGFR-1), and insulin receptor (IRK) activity. Reactions were performed in 384-well white, clear bottom, high-binding microtiter plates (Greiner). Plates were coated with 2 μg/well peptide substrate in a 50 μL volume. […] The coated plates were washed once with 50 μL assay buffer following overnight incubation at room temperature. Test compound and either 5 nmol/L EphB4 (residues E605-E890 of human EphB4 containing a six histidine NH2-terminal tag, expressed in a baculovirus expression system and purified using metal chelate chromatography), 4 nmol/L insulin-like growth factor-I receptor (residues M954-C1367 of human insulin-like growth factor-I receptor, Proqinase GmbH), or 15 nmol/L insulin receptor 1 (residues P948-S1343 of human insulin receptor 1, Proqinase) were combined with [^33P]g-ATP (5 μmol/L, 3.3 μCi/nmol) in a total volume of 20 μL. The reaction mixture was incubated at room temperature for 1.5 to 2.5 h and terminated by aspiration. The microtiter plates were subsequently washed six times with 0.05% Tween-PBS buffer. Scintillation fluid (50 μL/well) was added and incorporated ^33P was measured by liquid scintillation spectrometry using a MicroBeta scintillation counter (Perkin-Elmer).

A further assay addresses T2, IGF1R (Homo sapiens, UniProt P08069).
T2 construct: residues M954-C1367 of human insulin-like growth factor-I receptor, Proqinase GmbH; purchased Proqinase GmbH
The assay can be described thus: Radiometric 33P-phosphoryl transfer kinase assay. Conditions: ATP at Km. Type of assay: biochemical. As to the method:
as §1, §2

Another assay addresses T3, InsR (Homo sapiens, UniProt P06213).
T3 construct: residues P948-S1343 of human insulin receptor 1, Proqinase; purchased Proqinase
Put plainly: Radiometric 33P-phosphoryl transfer kinase assay. The format is biochemical. Conditions: ATP at Km. The protocol: as §1, §2

Assay [1] relates to Muscarinic, Non-selective, Peripheral. The assay can be described thus: NovaScreen assay. Type of assay: binding.
Assay [2] deals with T4, Potassium Channel, Ca2+ Act., VS (Homo sapiens, UniProt Q12791).
T4 construct: NovaScreen
T4 sequence (Q12791 whole entry): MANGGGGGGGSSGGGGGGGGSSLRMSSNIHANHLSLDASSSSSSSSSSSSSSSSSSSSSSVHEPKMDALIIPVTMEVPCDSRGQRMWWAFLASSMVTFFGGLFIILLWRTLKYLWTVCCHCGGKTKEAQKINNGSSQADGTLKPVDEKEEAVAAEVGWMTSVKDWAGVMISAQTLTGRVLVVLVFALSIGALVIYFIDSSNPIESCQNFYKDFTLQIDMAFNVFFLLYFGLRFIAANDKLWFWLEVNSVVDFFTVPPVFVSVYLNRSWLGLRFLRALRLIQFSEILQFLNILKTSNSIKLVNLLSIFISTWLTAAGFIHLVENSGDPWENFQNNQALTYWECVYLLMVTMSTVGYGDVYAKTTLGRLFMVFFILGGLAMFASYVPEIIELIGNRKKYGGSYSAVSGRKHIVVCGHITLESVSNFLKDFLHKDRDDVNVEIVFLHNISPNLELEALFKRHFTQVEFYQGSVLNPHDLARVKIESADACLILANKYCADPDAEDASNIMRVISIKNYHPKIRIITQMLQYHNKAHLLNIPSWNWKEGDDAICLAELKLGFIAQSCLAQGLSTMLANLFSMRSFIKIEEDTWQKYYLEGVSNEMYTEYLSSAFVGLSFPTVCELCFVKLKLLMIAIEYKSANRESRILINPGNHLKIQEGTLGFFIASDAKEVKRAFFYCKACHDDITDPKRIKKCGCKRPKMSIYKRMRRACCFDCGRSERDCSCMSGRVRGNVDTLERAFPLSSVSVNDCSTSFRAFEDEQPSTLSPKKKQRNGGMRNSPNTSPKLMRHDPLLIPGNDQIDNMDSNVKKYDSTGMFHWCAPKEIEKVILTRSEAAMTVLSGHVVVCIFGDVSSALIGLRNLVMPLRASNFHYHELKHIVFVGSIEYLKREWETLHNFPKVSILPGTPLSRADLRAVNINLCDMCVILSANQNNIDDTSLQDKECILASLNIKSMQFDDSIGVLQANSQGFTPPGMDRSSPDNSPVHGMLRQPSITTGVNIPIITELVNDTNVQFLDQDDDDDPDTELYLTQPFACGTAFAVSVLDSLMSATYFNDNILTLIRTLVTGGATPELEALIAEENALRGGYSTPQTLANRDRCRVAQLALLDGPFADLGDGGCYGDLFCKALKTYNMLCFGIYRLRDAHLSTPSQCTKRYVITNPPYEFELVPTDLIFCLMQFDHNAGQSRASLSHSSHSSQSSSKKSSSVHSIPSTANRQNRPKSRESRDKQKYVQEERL
The assay can be described thus: NovaScreen assay. The format is binding. Conditions: read-out: Inhibition, 10 μM XL-647.

For assay [3], the target named is T5, Choline Acetyltransferase (Homo sapiens, UniProt P28329).
T5 construct: NovaScreen
T5 sequence (P28329 whole entry): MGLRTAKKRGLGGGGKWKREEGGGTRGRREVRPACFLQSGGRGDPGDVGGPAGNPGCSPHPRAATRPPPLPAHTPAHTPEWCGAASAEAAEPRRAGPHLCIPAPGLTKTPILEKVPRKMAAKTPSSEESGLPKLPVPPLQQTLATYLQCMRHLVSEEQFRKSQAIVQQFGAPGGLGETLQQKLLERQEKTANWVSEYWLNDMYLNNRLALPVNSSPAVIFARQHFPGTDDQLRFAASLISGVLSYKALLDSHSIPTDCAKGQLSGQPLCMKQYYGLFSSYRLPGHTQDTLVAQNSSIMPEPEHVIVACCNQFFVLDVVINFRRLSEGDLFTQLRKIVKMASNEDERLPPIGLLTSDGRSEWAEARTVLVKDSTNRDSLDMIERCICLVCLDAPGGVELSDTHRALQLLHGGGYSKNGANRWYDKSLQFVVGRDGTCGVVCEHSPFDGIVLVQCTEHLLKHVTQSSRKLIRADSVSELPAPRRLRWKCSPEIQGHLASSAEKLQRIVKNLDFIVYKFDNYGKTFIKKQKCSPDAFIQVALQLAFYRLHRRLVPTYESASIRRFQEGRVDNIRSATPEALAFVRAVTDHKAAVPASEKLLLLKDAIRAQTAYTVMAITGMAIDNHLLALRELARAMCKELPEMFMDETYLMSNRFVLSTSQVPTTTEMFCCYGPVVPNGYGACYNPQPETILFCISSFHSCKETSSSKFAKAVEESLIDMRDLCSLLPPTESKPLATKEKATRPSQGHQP
The assay can be described thus: NovaScreen assay. The format is biochemical. Conditions: read-out: Inhibition, 10 μM XL-647.

A further assay deals with PDGFRβ (Homo sapiens, UniProt P09619). The assay can be described thus: Cellular autophosphorylation assay. Type of assay: cell-based.
PDGFRβ, sequence (P09619 33-1106, species assumed): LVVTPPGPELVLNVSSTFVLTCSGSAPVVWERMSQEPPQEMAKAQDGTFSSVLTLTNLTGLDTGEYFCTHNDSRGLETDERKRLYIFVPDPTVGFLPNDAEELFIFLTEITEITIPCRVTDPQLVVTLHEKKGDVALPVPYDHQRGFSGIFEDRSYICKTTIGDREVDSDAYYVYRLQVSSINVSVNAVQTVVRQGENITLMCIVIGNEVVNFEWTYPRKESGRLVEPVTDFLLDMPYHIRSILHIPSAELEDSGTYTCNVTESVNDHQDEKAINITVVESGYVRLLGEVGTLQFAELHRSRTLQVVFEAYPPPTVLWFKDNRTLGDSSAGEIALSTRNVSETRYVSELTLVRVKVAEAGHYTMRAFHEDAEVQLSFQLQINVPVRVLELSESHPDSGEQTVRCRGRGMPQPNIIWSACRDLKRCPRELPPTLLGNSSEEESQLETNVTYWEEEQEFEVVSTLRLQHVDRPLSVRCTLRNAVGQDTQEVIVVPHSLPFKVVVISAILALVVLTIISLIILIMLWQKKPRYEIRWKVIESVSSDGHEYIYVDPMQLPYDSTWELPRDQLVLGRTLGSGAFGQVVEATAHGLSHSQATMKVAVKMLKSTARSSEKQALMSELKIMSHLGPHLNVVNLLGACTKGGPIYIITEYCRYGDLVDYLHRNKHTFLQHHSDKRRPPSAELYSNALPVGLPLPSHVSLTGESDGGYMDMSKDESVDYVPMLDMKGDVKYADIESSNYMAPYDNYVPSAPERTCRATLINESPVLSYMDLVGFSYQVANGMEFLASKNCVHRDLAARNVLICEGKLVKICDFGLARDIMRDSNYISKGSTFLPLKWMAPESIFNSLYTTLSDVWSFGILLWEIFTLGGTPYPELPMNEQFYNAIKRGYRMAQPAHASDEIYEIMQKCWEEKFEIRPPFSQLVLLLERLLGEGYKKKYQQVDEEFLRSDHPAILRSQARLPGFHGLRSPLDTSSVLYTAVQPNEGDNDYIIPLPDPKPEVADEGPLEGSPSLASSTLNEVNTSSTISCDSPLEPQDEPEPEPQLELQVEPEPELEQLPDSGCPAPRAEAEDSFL

One compound from US9364479B2, “Use of a receptor-type kinase modulator for treating polycystic kidney disease” (SYMPHONY EVOLUTION, INC., priority 2010, dated 2016) can be followed below.

As usually defined, the IC50 is the concentration at which inhibition is half-maximal. Read a low IC50 as greater potency in that assay. The term inhibition denotes the change of the read-out against control, counted positive when it falls.

T3 sequence (P06213 987-1382): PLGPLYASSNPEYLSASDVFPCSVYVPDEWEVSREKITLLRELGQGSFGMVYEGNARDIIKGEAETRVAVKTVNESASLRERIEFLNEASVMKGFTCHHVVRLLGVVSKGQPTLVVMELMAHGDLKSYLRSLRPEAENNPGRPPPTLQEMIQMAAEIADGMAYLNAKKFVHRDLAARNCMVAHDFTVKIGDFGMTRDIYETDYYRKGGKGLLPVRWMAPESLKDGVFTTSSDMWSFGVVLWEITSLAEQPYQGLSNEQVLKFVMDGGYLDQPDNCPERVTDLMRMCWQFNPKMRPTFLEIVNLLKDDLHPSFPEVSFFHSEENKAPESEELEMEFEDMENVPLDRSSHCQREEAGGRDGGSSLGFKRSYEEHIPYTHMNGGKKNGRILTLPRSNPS
T2 sequence (P08069 954-1367): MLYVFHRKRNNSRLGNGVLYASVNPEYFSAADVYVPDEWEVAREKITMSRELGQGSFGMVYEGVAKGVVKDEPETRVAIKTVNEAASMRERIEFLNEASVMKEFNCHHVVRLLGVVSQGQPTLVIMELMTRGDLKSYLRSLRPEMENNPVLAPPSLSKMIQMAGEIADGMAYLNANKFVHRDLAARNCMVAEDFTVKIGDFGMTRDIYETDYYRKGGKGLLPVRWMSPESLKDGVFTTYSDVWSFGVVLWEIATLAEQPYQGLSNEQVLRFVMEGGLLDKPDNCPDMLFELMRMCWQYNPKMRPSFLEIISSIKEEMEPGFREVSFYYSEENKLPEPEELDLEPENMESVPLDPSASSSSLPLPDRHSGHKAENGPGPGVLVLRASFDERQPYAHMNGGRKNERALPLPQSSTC

As to `COc1cc2c(Nc3ccc(Cl)c(Cl)c3F)ncnc2cc1OC[C@@H]1C[C@@H]2CN(C)C[C@@H]2C1` [XL-647, N-(3,4-dichloro-2-fluorophenyl)-7-({[(3aR,5r,6aS)-2-methyloctahydrocyclopenta[c]pyrrol-5-yl]methyl}oxy)-6-(methyloxy)quinazolin-4-amine], the IC50 at EphB4 was 1.4 ± 0.2 nM; at IGF1R it was greater than 10000 nM; on InsR, greater than 26000 nM; in assay [1], 2650 nM; at PDGFRβ, greater than 1200 nM. Also, the “Inhibition, 10 μM XL-647” value in assay [1] (10 μM) was determined as 87.74%. In addition, the inhibition at 10 µM turned out to be 22.7% in assay [2] and 1.27% in assay [3].
